Source: publication PMC7160233, “Peptides With Triplet-Tryptophan-Pivot Promoted Pathogenic Bacteria Membrane Defects” (Frontiers in Microbiology, 2020)
Where a SMILES comes first, the peptide text is derived from it.

Legend:
P. aeruginosa 27853 = type: cell-based, Pseudomonas aeruginosa; conditions: 27853, 24 h
Method: (§1) The antibacterial activity of the peptides was measured using a method adopted from the Clinical Laboratory Standards Institute (CLSI), with modifications. 50 μL bacterial cells solution with 1000-fold of OD600 = 0.4 was mixed with 50 μL of each peptide of various concentration ranged from 2 to 64 μM dissolved in BSA (0.2% with 0.01% acetic acid) and incubated in sterile 96-well plates at 37°C for 24 h. The MICs were calculated as the lowest concentration of peptide with no microbial growth being observed. Broth with microbial cells and uninoculated broth were used as positive control and negative control, respectively. The tests were performed at least three times.

E. coli UB 1005 = assay: MIC measurement (modified CLSI broth microdilution); type: cell-based, Escherichia coli; conditions: peptide 2-64 μM in 0.2% BSA with 0.01% acetic acid, 37°C, 24 h, at least three times
Method: as §1

L. plantarum 8014 = type: cell-based; conditions: 24 h
Method: as §1

S. aureus 29213 = type: cell-based, Staphylococcus aureus; conditions: 29213, 24 h
Method: as §1

L. rhamnosus 1.0911 = type: cell-based, Lactobacillus rhamnosus; conditions: 24 h
Method: as §1

L. rhamnosus 1.9025 = type: cell-based, Lactobacillus rhamnosus; conditions: 24 h
Method: as §1

L. rhamnosus 1.0385 = type: cell-based, Lactobacillus rhamnosus; conditions: 24 h
Method: as §1

L. rhamnosus 1.0386 = type: cell-based, Lactobacillus rhamnosus; conditions: 24 h
Method: as §1

L. rhamnosus 7469 = type: cell-based, Lactobacillus rhamnosus; conditions: 24 h
Method: as §1

E. coli 25922 = type: cell-based, Escherichia coli; conditions: 25922, 24 h
Method: as §1

MRSA* 43300 = type: cell-based, methicillin-resistant Staphylococcus aureus; conditions: * 43300, 24 h
Method: as §1

S. epidermidis 12228 = type: cell-based, Staphylococcus epidermidis; conditions: 12228, 24 h
Method: as §1

Lactobacillus = type: cell-based; conditions: probiotic strains of Table 2
Method: as §1

pathogens = assay: Geometric mean of MICs against pathogens; type: cell-based; conditions: six pathogenic strains of Table 2
Method: as §1

E. coli ATCC 25922 = assay: Drug resistance experiment (sequential passaging); type: cell-based, Escherichia coli; conditions: E. coli 25922, passaged at sub-MIC for 30 days
Method: Resistance development of E. coli ATCC 25922 against antibiotics was investigated using a sequential passaging method. Briefly, in the first generation, the MIC value was determined as described previously. After a 24 h incubation, bacterial cells growing in a well with a half-MIC level were harvested and diluted to 0.05 at OD600, followed by a 1:10 dilution in fresh MHB. The inoculum was subjected to subsequent passage MIC testing, and the process was repeated for 30 days. The fold change in MIC was plotted against the number of passages.

Structure (SMILES)	MIC P. aeruginosa 27853 (P. aeruginosa 27853)	MIC E. coli UB 1005 (E. coli UB 1005)	MIC L. plantarum 8014 (L. plantarum 8014)	MIC S. aureus 29213 (S. aureus 29213)	MIC L. rhamnosus 1.0911 (L. rhamnosus 1.0911)	MIC L. rhamnosus 1.9025 (L. rhamnosus 1.9025)	MIC L. rhamnosus 1.0385 (L. rhamnosus 1.0385)	MIC L. rhamnosus 1.0386 (L. rhamnosus 1.0386)	MIC L. rhamnosus 7469 (L. rhamnosus 7469)	MIC E. coli 25922 (E. coli 25922)	MIC MRSA* 43300 (MRSA* 43300)	MIC S. epidermidis 12228 (S. epidermidis 12228)	MIC against Lactobacillus (Lactobacillus)	geometric mean (GM) of MICs against pathogens (pathogens)	resistance development (change in MIC on serial passaging) (E. coli ATCC 25922)
N=C(N)NCCC[C@H](NC(=O)[C@H](CCCNC(=N)N)NC(=O)[C@H](Cc1c[nH]c2ccccc12)NC(=O)[C@H](CS)NC(=O)[C@H](Cc1c[nH]c2ccccc12)NC(=O)[C@H](Cc1c[nH]c2ccccc12)NC(=O)[C@H](Cc1c[nH]c2ccccc12)NC(=O)[C@H](CS)NC(=O)[C@H](Cc1c[nH]c2ccccc12)NC(=O)[C@H](CCCNC(=N)N)NC(=O)[C@@H](N)CCCNC(=N)N)C(N)=O [Peptide S1] (H-RRWCWWWCWRR-NH2; N-terminus assumed)	8 μ M	16 μ M	8 μ M	8 μ M	>64 μ M	>64 μ M	16 μ M	>64 μ M	>64 μ M	>64 μ M	4 μ M	8 μ M	–	–	–
N=C(N)NCCC[C@H](NC(=O)[C@H](CCCNC(=N)N)NC(=O)[C@H](Cc1c[nH]c2ccccc12)NC(=O)[C@H](Cc1ccc(O)cc1)NC(=O)[C@H](Cc1c[nH]c2ccccc12)NC(=O)[C@H](Cc1c[nH]c2ccccc12)NC(=O)[C@H](Cc1c[nH]c2ccccc12)NC(=O)[C@H](Cc1ccc(O)cc1)NC(=O)[C@H](Cc1c[nH]c2ccccc12)NC(=O)[C@H](CCCNC(=N)N)NC(=O)[C@@H](N)CCCNC(=N)N)C(N)=O [Peptide S2] (H-RRWYWWWYWRR-NH2)	8 μ M	32 μ M	4 μ M	8 μ M	>64 μ M	>64 μ M	16 μ M	16 μ M	>64 μ M	32 μ M	8 μ M	8 μ M	–	–	–
N=C(N)NCCC[C@H](NC(=O)[C@H](CCCNC(=N)N)NC(=O)[C@H](Cc1c[nH]c2ccccc12)NC(=O)[C@H](CC(N)=O)NC(=O)[C@H](Cc1c[nH]c2ccccc12)NC(=O)[C@H](Cc1c[nH]c2ccccc12)NC(=O)[C@H](Cc1c[nH]c2ccccc12)NC(=O)[C@H](CC(N)=O)NC(=O)[C@H](Cc1c[nH]c2ccccc12)NC(=O)[C@H](CCCNC(=N)N)NC(=O)[C@@H](N)CCCNC(=N)N)C(N)=O [Peptide S3] (H-RRWNWWWNWRR-NH2)	>64 μ M	>64 μ M	>64 μ M	>64 μ M	>64 μ M	>64 μ M	>64 μ M	>64 μ M	>64 μ M	>64 μ M	>64 μ M	>64 μ M	–	–	–
N=C(N)NCCC[C@H](NC(=O)[C@H](CCCNC(=N)N)NC(=O)[C@H](Cc1c[nH]c2ccccc12)NC(=O)[C@H](CCC(N)=O)NC(=O)[C@H](Cc1c[nH]c2ccccc12)NC(=O)[C@H](Cc1c[nH]c2ccccc12)NC(=O)[C@H](Cc1c[nH]c2ccccc12)NC(=O)[C@H](CCC(N)=O)NC(=O)[C@H](Cc1c[nH]c2ccccc12)NC(=O)[C@H](CCCNC(=N)N)NC(=O)[C@@H](N)CCCNC(=N)N)C(N)=O [Peptide S4] (H-RRWQWWWQWRR-NH2)	4 μ M	4 μ M	8 μ M	4 μ M	>64 μ M	>64 μ M	16 μ M	64 μ M	>64 μ M	4 μ M	4 μ M	4 μ M	–	–	–
C[C@@H](O)[C@H](NC(=O)[C@H](Cc1c[nH]c2ccccc12)NC(=O)[C@H](Cc1c[nH]c2ccccc12)NC(=O)[C@H](Cc1c[nH]c2ccccc12)NC(=O)[C@@H](NC(=O)[C@H](Cc1c[nH]c2ccccc12)NC(=O)[C@H](CCCNC(=N)N)NC(=O)[C@@H](N)CCCNC(=N)N)[C@@H](C)O)C(=O)N[C@@H](Cc1c[nH]c2ccccc12)C(=O)N[C@@H](CCCNC(=N)N)C(=O)N[C@@H](CCCNC(=N)N)C(N)=O [Peptide S5] (H-RRWTWWWTWRR-NH2)	4 μ M	2 μ M	>64 μ M	1 μ M	>64 μ M	>64 μ M	>64 μ M	>64 μ M	>64 μ M	2 μ M	4 μ M	2 μ M	more than 64 μM	2.24 µM	–
N=C(N)NCCC[C@H](NC(=O)[C@H](CCCNC(=N)N)NC(=O)[C@H](Cc1c[nH]c2ccccc12)NC(=O)CNC(=O)[C@H](Cc1c[nH]c2ccccc12)NC(=O)[C@H](Cc1c[nH]c2ccccc12)NC(=O)[C@H](Cc1c[nH]c2ccccc12)NC(=O)CNC(=O)[C@H](Cc1c[nH]c2ccccc12)NC(=O)[C@H](CCCNC(=N)N)NC(=O)[C@@H](N)CCCNC(=N)N)C(N)=O [Peptide S6] (H-RRWGWWWGWRR-NH2)	8 μ M	2 μ M	>64 μ M	16 μ M	>64 μ M	>64 μ M	>64 μ M	>64 μ M	>64 μ M	4 μ M	16 μ M	>64 μ M	–	–	–
N=C(N)NCCC[C@H](NC(=O)[C@H](CCCNC(=N)N)NC(=O)[C@H](Cc1c[nH]c2ccccc12)NC(=O)[C@H](CO)NC(=O)[C@H](Cc1c[nH]c2ccccc12)NC(=O)[C@H](Cc1c[nH]c2ccccc12)NC(=O)[C@H](Cc1c[nH]c2ccccc12)NC(=O)[C@H](CO)NC(=O)[C@H](Cc1c[nH]c2ccccc12)NC(=O)[C@H](CCCNC(=N)N)NC(=O)[C@@H](N)CCCNC(=N)N)C(N)=O [Peptide S7] (H-RRWSWWWSWRR-NH2)	4 μ M	2 μ M	>64 μ M	4 μ M	>64 μ M	>64 μ M	>64 μ M	>64 μ M	>64 μ M	4 μ M	2 μ M	4 μ M	more than 64 μM	3.17 µM	–
CN(C)[C@@H]1C(O)=C(C(N)=O)C(=O)[C@@]2(O)C(O)=C3C(=O)c4c(O)cccc4[C@@](C)(O)[C@H]3C[C@@H]12 [tetracycline]	–	–	–	–	–	–	–	–	–	–	–	–	–	–	induced rapid resistance acquisition
